# Measured values as given in US10905683B2, “Compositions and uses of amidine derivatives” (BIOCRYST PHARMACEUTICALS, INC., priority 2014, dated 2021).
# Where “and” joins values, the source holds several entries; their conditions need not be identical. Identical values can stand only once. Like-named read-outs stand apart in the source and are kept apart here.
# Tests used:
# [1] = Solubility in surfactant solutions; assay type: physicochemical
# Protocol: The solubility of the compound of Example 1 in a range of surfactants was measured. Solubility assays were performed by the sequential addition of the compound of Example 1 to an appropriate organic solvent while stirring vigorously until a precipitate is formed. The resulting suspension is then shaken for 24 hours at room temperature, filtered and the resulting solution was analyzed by appropriate analytical method. Quantitation was performed by comparison of the concentrations of the resulting solution of the compound of Example 1 to a single point calibration curve using a solution of the reference standard.
# [2] = octanol-PBS pH 7.4 partition coefficient (log D7.4) assay; assay type: physicochemical; settings: octanol/0.01 M phosphate buffer pH 7.4, 24 hours, LC/MS/MS
# Protocol: A 1 μL volume of a 1 mM stock solution of the compound in dimethyl sulfoxide (DMSO) was added to 500 μL 0.01 M phosphate buffer pH 7.4 (saturated with octanol) and 500 μL of octanol (saturated with 0.01 M phosphate buffer). […] Samples were prepared in triplicate.
# [3] = Phase 1 Part 2, multiple ascending dose pharmacokinetics (7 days, q8h); assay type: in vivo, human; settings: for Cmax / AUC(0-t) / Tmax / AUC / half-life / concentration at 8 h: human, plasma, oral; for AUC(0-t): read-out: AUC0-8; for concentration at 8 h: read-out: Ctau
# Protocol: (§1) Part 2 of the study evaluated the safety, tolerability, PK, and PD of multiple ascending doses of the compound of Example 1. Twelve subjects were administered a 7-day course of the compound of Example 1 (n=10 subjects/cohort received the API and n=2 subjects/cohort received matching placebo) according to the following dose regimens: 100 mg of the compound of Example 1 or placebo every 8 hours (q8h) in Cohort 1; 200 mg of the compound of Example 1 or placebo q8h in Cohort 2; 400 mg of the compound of Example 1 or placebo q8h in Cohort 3 and 800 mg of the compound of Example 1 or placebo q8h in Cohort 4.
# A total of 48 subjects were enrolled in Part 2 of the Study and 47 subjects completed the study. A summary of pharmacokinetic parameters for the compound of Example 1 for the first dose on Day 1 and last dose on Day 7 is presented in Table 17. […] Day 7 geometric mean exposure (AUCtau and Cmax) did increase with increasing dose. Drug exposure was dose proportional through 400 mg three times a day. At 400 mg three times a day, pre-dose geometric mean drug levels and coefficient of variation (CV) on day 7 were 28.6 ng/ml and 77% and post-dose geometric mean maximum drug levels and CV were 152 ng/ml and 57%. Plasma concentrations of the compound of Example 1 over 25 ng/ml are expected to be efficacious in treating conditions such as, but not limited to, HAE and AAE.
# [4] = Phase 1 safety and tolerability; assay type: in vivo, human; settings: healthy subjects
# Protocol: A two-part, Phase 1, double-blind, placebo-controlled study of the compound of Example 1 was conducted in healthy subjects. Part 1 of the study assessed the safety, tolerability and the pharmacokinetic (PK) and pharmacodynamic (PD) properties of the compound of Example 1 following a single ascending dose. Subjects were enrolled in five sequential cohorts and received the compound of Example 1 (50 mg, 125 mg, 250 mg, 500 mg or 1000 mg; n=6/cohort) or placebo (n=2/cohort) under fasting conditions. To enable a food-effect assessment on exposure, subjects enrolled in Cohort 4 (500 mg or placebo) subsequently received a second dose of the compound of Example 1 following a high-fat breakfast.
# as §1
# [5] = Stability and photostability of formulations
# Protocol: This is a standard practice in the pharmaceutical industry in order to accelerate any chemical reactions that may occur due to environmental conditions (temperature, oxygen, light). […] If the stability data from the stress studies indicates a potential stability challenge, then further studies are required to identify the stability issue and resolve it.
# Initial stability studies were conducted under accelerated conditions. […] Several antioxidants were identified for study. These antioxidants are pharmaceutically acceptable for use in human oral dosage forms and are compatible with the gelatin composition in a soft gelatin capsule.
# Stability studies were performed with formulations that were protected from light and formulations exposed to light.
# [6] = 400 mg three times a day, day 7
# [7] = 100 mg, Day 1, 100 mg q 8 h, GM
# [8] = 100 mg, Day 1, 100 mg q 8 h, Median
# [9] = 100 mg, Day 7, 100 mg q 8 h, GM
# [10] = 100 mg, Day 7, 100 mg q 8 h, Median
# [11] = 200 mg, Day 1, 200 mg q 8 h, GM
# [12] = 200 mg, Day 1, 200 mg q 8 h, Median
# [13] = 200 mg, Day 7, 200 mg q 8 h, GM
# [14] = 200 mg, Day 7, 200 mg q 8 h, Median
# [15] = 400 mg, Day 1, 400 mg q 8 h, GM
# [16] = 400 mg, Day 1, 400 mg q 8 h, Median
# [17] = 400 mg, Day 7, 400 mg q 8 h, GM
# [18] = 400 mg, Day 7, 400 mg q 8 h, Median
# [19] = 800 mg, Day 1, 800 mg q 8 h, GM
# [20] = 800 mg, Day 1, 800 mg q 8 h, Median
# [21] = 800 mg, Day 7, 800 mg q 8 h, GM
# [22] = 800 mg, Day 7, 800 mg q 8 h, Median
structure (smiles),measurement,setting,value
"C=Cc1cc(C(=O)Nc2ccc(C(=N)N)cc2)c(-c2ccc(C(=O)NCC3CC3)nc2C(=O)O)cc1OC [Example 1, 3-[2-(4-carbamimidoyl-phenylcarbamoyl)-5-methoxy-4-vinyl-phenyl]-6-(cyclopropylmethyl-carbamoyl)-pyridine-2-carboxylic acid]",Saturated concentration of Example 1,[1]; 3-[(3-Chloamidopropyl)-dimethylamino]-1-propanesulfate 1%,0.66 mg/mL
same,Saturated concentration of Example 1,[1]; D-alpha-tocopheryl-polyethylene glycol 1000 succinate 12.3% (in PEG 400),7.8 mg/mL
same,Saturated concentration of Example 1,[1]; D-alpha-tocopheryl-polyethylene glycol 1000 succinate 20% (in PEG 400),20.8 mg/mL
same,Saturated concentration of Example 1,[1]; Lecithin 2% (in water),1.2 mg/mL
same,Saturated concentration of Example 1,[1]; Lecithin 4% (in PEG 400),3.3 mg/mL
same,Saturated concentration of Example 1,[1]; Lecithin 4% (in water),2.2 mg/mL
same,Saturated concentration of Example 1,[1]; Lecithin 10% (in PEG 400),10.6 mg/mL
same,Saturated concentration of Example 1,[1]; Lecithin 10% (in water),3.1 mg/mL
same,Saturated concentration of Example 1,[1]; Octadecyl amine 1% (in PEG 400),7.8 mg/mL and 7.1 mg/mL
same,Saturated concentration of Example 1,[1]; Palmitoyl-carnitine chloride 0.10% (in water),0.3 mg/mL
same,Saturated concentration of Example 1,[1]; dioctyl sodium sulfosuccinate 1% in PEG400,1.72 mg/mL
same,Saturated concentration of Example 1,[1]; sodium lauryl sulphate 1% (in water),2.4 mg/mL
same,Saturated concentration of Example 1,[1]; sodium lauryl sulphate 2% (in water),4.7 mg/mL
same,Saturated concentration of Example 1,[1]; sodium lauryl sulphate 5% (in water),10 mg/mL
same,logD at 24 h,[2],1.9
same,post-dose geometric mean maximum drug level,[3]; [6],152 ng/mL
same,pre-dose geometric mean drug level,[3]; [6],28.6 ng/mL
same,accumulation in Cmax and AUC after repeated dosing compared to first day,[3]; 7 days q8h,approximately 30%
same,Ctau,"[3]; Day 7, 100 mg q 8 h, GM",8.34 ng/mL
same,DN AUCtau,"[3]; Day 7, 100 mg q 8 h, GM",2.37 ng·h/mL/mg
same,Ctau,"[3]; Day 7, 100 mg q 8 h, Median",7.92 ng/mL
same,DN AUCtau,"[3]; Day 7, 200 mg q 8 h, GM",1.58 ng·h/mL/mg
same,DN AUCtau,"[3]; Day 7, 400 mg q 8 h, GM",1.34 ng·h/mL/mg
same,Ctau,"[3]; Day 7, 800 mg q 8 h, GM",23.7 ng/mL
same,DN AUCtau,"[3]; Day 7, 800 mg q 8 h, GM",0.847 ng·h/mL/mg
same,Ctau,"[3]; Day 7, 800 mg q 8 h, Median",30.3 ng/mL
same,time of maximal concentrations postdose,[3]; across dosing days and cohorts,approximately 2 hours
same,Cmax,[3]; [7],54.5 ng/mL
same,AUC(0-t),[3]; [7],173 ng·h/mL
same,Cmax,[3]; [8],49.4 ng/mL
same,Tmax,[3]; [8],1 h
same,AUC(0-t),[3]; [8],185 ng·h/mL
same,AUC,[3]; [9],237 ng·h/mL
same,Cmax,[3]; [9],72.6 ng/mL
same,half-life,"[3]; 100 mg, Day 7, 100 mg q 8 h, GM, read-out: t1/2 (converted)",12.4 h
same,AUC,[3]; [10],246 ng·h/mL
same,Cmax,[3]; [10],71.2 ng/mL
same,Tmax,[3]; [10],2 h
same,half-life,"[3]; 100 mg, Day 7, 100 mg q 8 h, Median, read-out: t1/2 (converted)",11.5 h
same,Cmax,[3]; [11],72 ng/mL
same,AUC(0-t),[3]; [11],236 ng·h/mL
same,Cmax,[3]; [12],89.7 ng/mL
same,Tmax,[3]; [12],2 h
same,AUC(0-t),[3]; [12],251 ng·h/mL
same,AUC,[3]; [13],316 ng·h/mL
same,Cmax,[3]; [13],83.6 ng/mL
same,concentration at 8 h,[3]; [13],12.9 ng/mL
same,half-life,"[3]; 200 mg, Day 7, 200 mg q 8 h, GM, read-out: t1/2 (converted)",12.6 h
same,AUC,[3]; [14],385 ng·h/mL
same,Cmax,[3]; [14],92.3 ng/mL
same,Tmax,[3]; [14],2 h
same,concentration at 8 h,[3]; [14],13 ng/mL
same,half-life,"[3]; 200 mg, Day 7, 200 mg q 8 h, Median, read-out: t1/2 (converted)",13.5 h
same,Cmax,[3]; [15],119 ng/mL
same,AUC(0-t),[3]; [15],421 ng·h/mL
same,Cmax,[3]; [16],124 ng/mL
same,Tmax,[3]; [16],2 h
same,AUC(0-t),[3]; [16],395 ng·h/mL
same,AUC,[3]; [17],534 ng·h/mL
same,Cmax,[3]; [17],152 ng/mL
same,concentration at 8 h,[3]; [17],17.4 ng/mL
same,half-life,"[3]; 400 mg, Day 7, 400 mg q 8 h, GM, read-out: t1/2 (converted)",13 h
same,AUC,[3]; [18],463 ng·h/mL
same,Cmax,[3]; [18],129 ng/mL
same,Tmax,[3]; [18],2 h
same,concentration at 8 h,[3]; [18],14.6 ng/mL
same,half-life,"[3]; 400 mg, Day 7, 400 mg q 8 h, Median, read-out: t1/2 (converted)",12.7 h
same,Cmax,[3]; [19],143 ng/mL
same,AUC(0-t),[3]; [19],504 ng·h/mL
same,Cmax,[3]; [20],153 ng/mL
same,Tmax,[3]; [20],2 h
same,AUC(0-t),[3]; [20],581 ng·h/mL
same,AUC,[3]; [21],678 ng·h/mL
same,Cmax,[3]; [21],187 ng/mL
same,half-life,"[3]; 800 mg, Day 7, 800 mg q 8 h, GM, read-out: t1/2 (converted)",7.46 h
same,AUC,[3]; [22],835 ng·h/mL
same,Cmax,[3]; [22],240 ng/mL
same,Tmax,[3]; [22],2 h
same,half-life,"[3]; 800 mg, Day 7, 800 mg q 8 h, Median, read-out: t1/2 (converted)",8.03 h
same,half-life,"[3]; calculated over a 24 hour period, read-out: terminal elimination half-life (converted)",~10 h
same,safety and tolerability,"[4]; Part 1 (50-1000 mg single) and Part 2 (100-800 mg q8h, 7 days)",generally safe and well tolerated
same,dose-limiting adverse events,[4]; Part 1 and Part 2,no dose-limiting adverse events
same,serious adverse events,[4]; Part 1 and Part 2,no serious adverse events
same,chemical stability under accelerated conditions,"[5]; combined with candidate formulations, exposed to light, oxygen and elevated temperatures",underwent degradation
same,photostability,[5]; exposed to ultraviolet (UV) or white (CW) light,demonstrated photodegradation
